From the kinase profiling compilation of Christmann-Franck et al. (2016)

What was measured:
Assay in all cases: KINOMEscan competition binding
Settings in all cases: compound 10.0 µM
STK32B (human) = STK32B (human) (UniProt Q9NY57)
NUAK2 (human) = NUAK2 (human) (UniProt Q9H093)
SRC (human) = SRC (human) (UniProt P12931)
EPHB4 (human) = EPHB4 (human) (UniProt P54760)
NLK (human) = NLK (human) (UniProt Q9UBE8)
PIK3CG (human) = PIK3CG (human) (UniProt P48736)
PTK2 (human) = PTK2 (human) (UniProt Q05397)
NTRK2 (human) = NTRK2 (human) (UniProt Q16620)
MARK1 (human) = MARK1 (human) (UniProt Q9P0L2)
Sequence of MARK1 (human) (Q9P0L2 whole entry, looked up): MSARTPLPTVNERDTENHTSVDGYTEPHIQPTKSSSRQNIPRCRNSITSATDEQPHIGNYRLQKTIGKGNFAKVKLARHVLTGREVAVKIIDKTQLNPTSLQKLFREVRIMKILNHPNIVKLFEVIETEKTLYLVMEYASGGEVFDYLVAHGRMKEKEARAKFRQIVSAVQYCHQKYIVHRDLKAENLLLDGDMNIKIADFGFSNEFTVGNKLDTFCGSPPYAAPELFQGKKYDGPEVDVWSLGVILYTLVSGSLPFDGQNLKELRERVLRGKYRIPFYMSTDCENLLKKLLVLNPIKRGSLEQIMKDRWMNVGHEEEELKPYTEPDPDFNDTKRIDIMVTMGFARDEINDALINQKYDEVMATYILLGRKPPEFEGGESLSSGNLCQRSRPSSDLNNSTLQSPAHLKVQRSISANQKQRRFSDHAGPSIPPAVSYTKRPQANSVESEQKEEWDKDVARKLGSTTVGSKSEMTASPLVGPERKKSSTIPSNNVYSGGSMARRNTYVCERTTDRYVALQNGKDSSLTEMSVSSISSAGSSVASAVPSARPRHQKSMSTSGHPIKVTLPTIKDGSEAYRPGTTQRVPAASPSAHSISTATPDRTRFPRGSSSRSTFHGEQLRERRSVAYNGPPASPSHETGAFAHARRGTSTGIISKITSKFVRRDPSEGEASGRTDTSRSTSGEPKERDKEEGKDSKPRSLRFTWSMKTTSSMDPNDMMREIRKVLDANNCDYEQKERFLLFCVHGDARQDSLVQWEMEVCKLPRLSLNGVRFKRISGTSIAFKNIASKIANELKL

MAP4K3 (human) = MAP4K3 (human) (UniProt Q8IVH8)
Sequence of MAP4K3 (human) (Q8IVH8 whole entry, looked up): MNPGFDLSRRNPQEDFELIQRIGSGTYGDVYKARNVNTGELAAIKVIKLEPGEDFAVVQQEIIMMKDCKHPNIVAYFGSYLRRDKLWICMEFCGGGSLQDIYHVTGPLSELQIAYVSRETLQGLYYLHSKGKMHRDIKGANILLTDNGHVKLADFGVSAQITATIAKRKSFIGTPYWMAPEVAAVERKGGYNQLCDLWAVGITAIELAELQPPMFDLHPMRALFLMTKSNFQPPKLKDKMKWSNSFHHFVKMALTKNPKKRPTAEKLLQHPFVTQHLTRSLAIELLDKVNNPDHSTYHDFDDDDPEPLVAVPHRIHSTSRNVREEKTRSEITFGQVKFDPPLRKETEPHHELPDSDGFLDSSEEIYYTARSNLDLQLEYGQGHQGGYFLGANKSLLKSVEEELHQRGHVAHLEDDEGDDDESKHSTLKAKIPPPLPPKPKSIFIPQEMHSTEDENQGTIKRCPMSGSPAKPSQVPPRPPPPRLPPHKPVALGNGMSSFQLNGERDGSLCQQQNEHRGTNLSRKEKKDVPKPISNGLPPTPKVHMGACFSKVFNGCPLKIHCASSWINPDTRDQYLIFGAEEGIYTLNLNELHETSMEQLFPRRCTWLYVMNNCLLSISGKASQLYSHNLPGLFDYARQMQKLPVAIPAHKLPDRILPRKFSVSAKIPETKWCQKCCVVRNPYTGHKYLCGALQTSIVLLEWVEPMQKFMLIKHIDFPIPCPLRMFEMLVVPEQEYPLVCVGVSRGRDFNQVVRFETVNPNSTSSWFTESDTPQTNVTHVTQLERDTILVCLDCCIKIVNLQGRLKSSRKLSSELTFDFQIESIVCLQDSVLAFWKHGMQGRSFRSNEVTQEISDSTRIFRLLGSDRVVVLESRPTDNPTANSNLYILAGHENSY

CAMK2D (human) = CAMK2D (human) (UniProt Q13557)
FGFR4 (human) = FGFR4 (human) (UniProt P22455)
AKT3 (human) = AKT3 (human) (UniProt Q9Y243)
CLK4 (human) = CLK4 (human) (UniProt Q9HAZ1)
SRPK3 (human) = SRPK3 (human) (UniProt Q9UPE1)
STK32C (human) = STK32C (human) (UniProt Q86UX6)
ABL2 (human) = ABL2 (human) (UniProt P42684)
RAF1 (human) = RAF1 (human) (UniProt P04049)
NTRK1 (human) = NTRK1 (human) (UniProt P04629)
Sequence of NTRK1 (human) (P04629 whole entry, looked up): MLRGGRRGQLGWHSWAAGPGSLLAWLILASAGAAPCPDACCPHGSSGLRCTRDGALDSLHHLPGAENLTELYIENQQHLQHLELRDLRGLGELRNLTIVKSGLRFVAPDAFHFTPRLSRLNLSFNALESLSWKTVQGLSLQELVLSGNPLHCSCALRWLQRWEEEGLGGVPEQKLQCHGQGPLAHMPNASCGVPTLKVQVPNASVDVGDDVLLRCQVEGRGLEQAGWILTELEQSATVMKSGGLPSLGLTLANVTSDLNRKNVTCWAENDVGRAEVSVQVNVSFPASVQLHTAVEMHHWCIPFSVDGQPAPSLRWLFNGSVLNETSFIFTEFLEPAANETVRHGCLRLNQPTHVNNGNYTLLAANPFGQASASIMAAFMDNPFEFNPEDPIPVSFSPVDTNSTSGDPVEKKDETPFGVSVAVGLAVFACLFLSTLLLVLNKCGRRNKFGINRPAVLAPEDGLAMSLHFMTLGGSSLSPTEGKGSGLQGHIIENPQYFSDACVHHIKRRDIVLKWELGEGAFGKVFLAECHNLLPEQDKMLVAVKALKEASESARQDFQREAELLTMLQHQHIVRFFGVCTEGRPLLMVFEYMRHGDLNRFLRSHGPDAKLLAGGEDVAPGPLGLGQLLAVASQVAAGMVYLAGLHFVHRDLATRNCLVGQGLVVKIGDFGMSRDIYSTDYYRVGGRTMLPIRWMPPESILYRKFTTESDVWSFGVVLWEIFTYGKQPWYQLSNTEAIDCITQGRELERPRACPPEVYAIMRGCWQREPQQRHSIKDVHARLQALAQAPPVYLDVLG

NEK11 (human) = NEK11 (human) (UniProt Q8NG66)
Sequence of NEK11 (human) (Q8NG66 whole entry, looked up): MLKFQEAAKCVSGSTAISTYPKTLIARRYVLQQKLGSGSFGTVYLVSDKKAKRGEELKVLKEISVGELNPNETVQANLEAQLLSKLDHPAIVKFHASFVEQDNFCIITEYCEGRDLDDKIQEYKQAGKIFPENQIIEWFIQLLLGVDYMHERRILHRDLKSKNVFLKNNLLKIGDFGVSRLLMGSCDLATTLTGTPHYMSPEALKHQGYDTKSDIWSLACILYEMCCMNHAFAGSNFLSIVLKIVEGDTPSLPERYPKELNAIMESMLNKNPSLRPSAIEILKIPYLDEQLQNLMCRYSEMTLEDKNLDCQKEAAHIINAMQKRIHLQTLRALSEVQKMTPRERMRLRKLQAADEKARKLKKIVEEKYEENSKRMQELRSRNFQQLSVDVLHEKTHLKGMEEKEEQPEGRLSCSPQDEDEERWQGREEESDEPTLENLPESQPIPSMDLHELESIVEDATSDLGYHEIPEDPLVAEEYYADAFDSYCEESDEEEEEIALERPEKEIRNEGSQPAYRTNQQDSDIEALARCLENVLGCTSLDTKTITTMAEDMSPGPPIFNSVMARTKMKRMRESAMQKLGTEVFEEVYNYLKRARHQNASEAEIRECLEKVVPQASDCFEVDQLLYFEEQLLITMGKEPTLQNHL

ROCK1 (human) = ROCK1 (human) (UniProt Q13464)
HIPK3 (human) = HIPK3 (human) (UniProt Q9H422)
RPS6KA2 KD2 (human) = RPS6KA2 KD2 (human) (UniProt Q15349)
STK4 (human) = STK4 (human) (UniProt Q13043)
PTK2B (human) = PTK2B (human) (UniProt Q14289)
Sequence of PTK2B (human) (Q14289 whole entry, looked up): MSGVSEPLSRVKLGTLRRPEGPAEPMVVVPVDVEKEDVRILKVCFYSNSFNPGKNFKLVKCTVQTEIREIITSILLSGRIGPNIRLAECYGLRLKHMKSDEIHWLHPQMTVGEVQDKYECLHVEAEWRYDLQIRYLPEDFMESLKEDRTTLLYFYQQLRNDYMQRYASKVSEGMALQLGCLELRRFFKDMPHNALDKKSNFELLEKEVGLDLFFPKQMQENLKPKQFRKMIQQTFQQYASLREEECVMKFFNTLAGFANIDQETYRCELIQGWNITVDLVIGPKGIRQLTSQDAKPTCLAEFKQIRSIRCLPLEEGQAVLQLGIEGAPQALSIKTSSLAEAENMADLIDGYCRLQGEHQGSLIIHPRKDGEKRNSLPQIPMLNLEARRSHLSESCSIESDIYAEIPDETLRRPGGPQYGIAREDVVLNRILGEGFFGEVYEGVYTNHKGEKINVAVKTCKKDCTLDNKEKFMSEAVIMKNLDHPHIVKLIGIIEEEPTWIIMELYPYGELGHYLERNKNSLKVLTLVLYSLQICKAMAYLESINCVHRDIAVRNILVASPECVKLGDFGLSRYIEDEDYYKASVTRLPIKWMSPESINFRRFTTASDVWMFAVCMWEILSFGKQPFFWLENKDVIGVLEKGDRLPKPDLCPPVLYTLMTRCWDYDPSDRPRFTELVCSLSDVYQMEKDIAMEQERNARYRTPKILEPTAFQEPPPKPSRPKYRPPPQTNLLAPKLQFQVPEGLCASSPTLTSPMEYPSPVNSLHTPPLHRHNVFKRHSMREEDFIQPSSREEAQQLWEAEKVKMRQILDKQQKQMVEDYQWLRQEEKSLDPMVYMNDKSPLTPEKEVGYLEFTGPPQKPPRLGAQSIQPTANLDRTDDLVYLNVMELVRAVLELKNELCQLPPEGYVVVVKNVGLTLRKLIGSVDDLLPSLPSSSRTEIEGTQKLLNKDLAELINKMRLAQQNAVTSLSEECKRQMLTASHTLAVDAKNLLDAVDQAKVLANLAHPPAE

SIK3 (human) = SIK3 (human) (UniProt Q9Y2K2)
GRK7 (human) = GRK7 (human) (UniProt Q8WTQ7)
[1] = molecular target: TYK2 JH2 pseudokinase (human) (UniProt P29597)
PKN1 (human) = PKN1 (human) (UniProt Q16512)
EPHA7 (human) = EPHA7 (human) (UniProt Q15375)
GSK3A (human) = GSK3A (human) (UniProt P49840)
Sequence of GSK3A (human) (P49840 whole entry, looked up): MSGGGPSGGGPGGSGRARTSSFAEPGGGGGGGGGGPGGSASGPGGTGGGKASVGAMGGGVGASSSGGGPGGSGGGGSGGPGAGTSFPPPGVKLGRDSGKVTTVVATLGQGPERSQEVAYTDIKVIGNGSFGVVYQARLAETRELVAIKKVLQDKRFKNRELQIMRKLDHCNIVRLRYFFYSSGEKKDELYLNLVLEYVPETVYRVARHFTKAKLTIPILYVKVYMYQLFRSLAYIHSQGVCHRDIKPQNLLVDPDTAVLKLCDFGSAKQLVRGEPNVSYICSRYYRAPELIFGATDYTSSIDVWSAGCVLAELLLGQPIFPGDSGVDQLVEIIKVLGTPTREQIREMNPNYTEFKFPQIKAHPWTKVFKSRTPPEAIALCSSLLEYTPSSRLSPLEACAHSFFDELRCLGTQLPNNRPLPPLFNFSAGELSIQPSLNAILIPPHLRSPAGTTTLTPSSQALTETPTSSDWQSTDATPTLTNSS

PLK4 (human) = PLK4 (human) (UniProt O00444)
PIK3C2G (human) = PIK3C2G (human) (UniProt O75747)
PKN3 (M.tuberculosis) = PKN3 (M.tuberculosis) (UniProt Q6P5Z2)
AAK1 (human) = AAK1 (human) (UniProt Q2M2I8)
ULK3 (human) = ULK3 (human) (UniProt Q6PHR2)
MAP3K9 (human) = MAP3K9 (human) (UniProt P80192)
YES1 (human) = YES1 (human) (UniProt P07947)
STK32A (human) = STK32A (human) (UniProt Q8WU08)
Sequence of STK32A (human) (Q8WU08 whole entry, looked up): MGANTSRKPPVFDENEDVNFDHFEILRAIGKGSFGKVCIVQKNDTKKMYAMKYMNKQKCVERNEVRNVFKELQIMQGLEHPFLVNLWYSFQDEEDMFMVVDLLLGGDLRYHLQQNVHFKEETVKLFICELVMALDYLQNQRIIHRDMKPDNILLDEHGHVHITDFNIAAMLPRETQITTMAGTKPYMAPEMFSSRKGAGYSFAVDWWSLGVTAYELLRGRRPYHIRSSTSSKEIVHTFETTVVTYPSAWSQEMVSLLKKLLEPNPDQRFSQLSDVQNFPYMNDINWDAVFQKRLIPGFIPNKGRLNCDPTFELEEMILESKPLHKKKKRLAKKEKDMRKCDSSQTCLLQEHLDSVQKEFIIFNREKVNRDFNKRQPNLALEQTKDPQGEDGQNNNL

BTK (human) = BTK (human) (UniProt Q06187)

SMILES: N#C/C(=C1/Nc2ccccc2S1)c1ccnc(NCCc2cccnc2)n1
- kinase still bound, per cent of control (STK32B (human)): 100%
- kinase still bound, per cent of control (NUAK2 (human)): 100%
- kinase still bound, per cent of control (SRC (human)): 100%
- kinase still bound, per cent of control (EPHB4 (human)): 100%
- kinase still bound, per cent of control (NLK (human)): 100%
- kinase still bound, per cent of control (PIK3CG (human)): 50%
- kinase still bound, per cent of control (PTK2 (human)): 100%
- kinase still bound, per cent of control (NTRK2 (human)): 56%
- kinase still bound, per cent of control (MARK1 (human)): 100%
- kinase still bound, per cent of control (MAP4K3 (human)): 80%
- kinase still bound, per cent of control (CAMK2D (human)): 64%
- kinase still bound, per cent of control (FGFR4 (human)): 100%
- kinase still bound, per cent of control (AKT3 (human)): 100%
- kinase still bound, per cent of control (CLK4 (human)): 29%
- kinase still bound, per cent of control (SRPK3 (human)): 23%
- kinase still bound, per cent of control (STK32C (human)): 99%
- kinase still bound, per cent of control (ABL2 (human)): 100%
- kinase still bound, per cent of control (RAF1 (human)): 100%
- kinase still bound, per cent of control (NTRK1 (human)): 57%
- kinase still bound, per cent of control (NEK11 (human)): 100%
- kinase still bound, per cent of control (ROCK1 (human)): 37%
- kinase still bound, per cent of control (HIPK3 (human)): 0.25%
- kinase still bound, per cent of control (RPS6KA2 KD2 (human)): 56%
- kinase still bound, per cent of control (STK4 (human)): 100%
- kinase still bound, per cent of control (PTK2B (human)): 89%
- kinase still bound, per cent of control (SIK3 (human)): 100%
- kinase still bound, per cent of control (GRK7 (human)): 47%
- kinase still bound, per cent of control [1]: 1.4%
- kinase still bound, per cent of control (PKN1 (human)): 95%
- kinase still bound, per cent of control (EPHA7 (human)): 99%
- kinase still bound, per cent of control (GSK3A (human)): 0.6%
- kinase still bound, per cent of control (PLK4 (human)): 68%
- kinase still bound, per cent of control (PIK3C2G (human)): 8.8%
- kinase still bound, per cent of control (PKN3 (M.tuberculosis)): 4.6%
- kinase still bound, per cent of control (AAK1 (human)): 10%
- kinase still bound, per cent of control (ULK3 (human)): 12%
- kinase still bound, per cent of control (MAP3K9 (human)): 74%
- kinase still bound, per cent of control (YES1 (human)): 81%
- kinase still bound, per cent of control (STK32A (human)): 100%
- kinase still bound, per cent of control (BTK (human)): 77%

SMILES: COc1cc2c(Nc3ccc(NC(=O)c4ccccc4)cc3)ncnc2cc1OCCCN1CCOCC1
- kinase still bound, per cent of control (STK32B (human)): 100%
- kinase still bound, per cent of control (NUAK2 (human)): 94%
- kinase still bound, per cent of control (SRC (human)): 32%
- kinase still bound, per cent of control (EPHB4 (human)): 100%
- kinase still bound, per cent of control (NLK (human)): 100%
- kinase still bound, per cent of control (PIK3CG (human)): 100%
- kinase still bound, per cent of control (PTK2 (human)): 62%
- kinase still bound, per cent of control (NTRK2 (human)): 17%
- kinase still bound, per cent of control (MARK1 (human)): 100%
- kinase still bound, per cent of control (MAP4K3 (human)): 70%
- kinase still bound, per cent of control (CAMK2D (human)): 100%
- kinase still bound, per cent of control (FGFR4 (human)): 100%
- kinase still bound, per cent of control (AKT3 (human)): 100%
- kinase still bound, per cent of control (CLK4 (human)): 100%
- kinase still bound, per cent of control (SRPK3 (human)): 100%
- kinase still bound, per cent of control (STK32C (human)): 100%
- kinase still bound, per cent of control (ABL2 (human)): 82%
- kinase still bound, per cent of control (RAF1 (human)): 100%
- kinase still bound, per cent of control (NTRK1 (human)): 16%
- kinase still bound, per cent of control (NEK11 (human)): 100%
- kinase still bound, per cent of control (ROCK1 (human)): 98%
- kinase still bound, per cent of control (HIPK3 (human)): 52%
- kinase still bound, per cent of control (RPS6KA2 KD2 (human)): 100%
- kinase still bound, per cent of control (STK4 (human)): 78%
- kinase still bound, per cent of control (PTK2B (human)): 98%
- kinase still bound, per cent of control (SIK3 (human)): 100%
- kinase still bound, per cent of control (GRK7 (human)): 71%
- kinase still bound, per cent of control [1]: 83%
- kinase still bound, per cent of control (PKN1 (human)): 100%
- kinase still bound, per cent of control (EPHA7 (human)): 84%
- kinase still bound, per cent of control (GSK3A (human)): 100%
- kinase still bound, per cent of control (PLK4 (human)): 2%
- kinase still bound, per cent of control (PIK3C2G (human)): 14%
- kinase still bound, per cent of control (PKN3 (M.tuberculosis)): 37%
- kinase still bound, per cent of control (AAK1 (human)): 94%
- kinase still bound, per cent of control (ULK3 (human)): 7.3%
- kinase still bound, per cent of control (MAP3K9 (human)): 70%
- kinase still bound, per cent of control (YES1 (human)): 16%
- kinase still bound, per cent of control (STK32A (human)): 96%
- kinase still bound, per cent of control (BTK (human)): 7.3%
